According to the CheMixHub viscosity set:
“And” between values parts separate entries of the source, which are not always exact repeats. Identical values can stand only once.

Assay: xn = mol fraction of the nth substance listed

COC(=O)c1ccccc1 + C1COCCO1
viscosity [mPa·s], 100 kPa
Conditions | x1 = 0.0898 | x1 = 0.1468 | x1 = 0.228 | x1 = 0.3145 | x1 = 0.4054 | x1 = 0.5056 | x1 = 0.6161 | x1 = 0.7316 | x1 = 0.8597
303.15 K | 1.13 | 1.157 | 1.198 | 1.244 | 1.293 | 1.352 | 1.418 | 1.491 | 1.573
308.15 K | 1.038 | 1.066 | 1.106 | 1.147 | 1.192 | 1.246 | 1.308 | 1.376 | 1.449
313.15 K | 0.984 | 1.006 | 1.04 | 1.075 | 1.11 | 1.157 | 1.208 | 1.263 | 1.324

CCOC(=O)CCl + COc1ccccc1
viscosity [mPa·s], 101.3 kPa
Conditions | x1 = 0.1012 | x1 = 0.2027 | x1 = 0.3 | x1 = 0.3936 | x1 = 0.4982 | x1 = 0.6022 | x1 = 0.6954 | x1 = 0.7934 | x1 = 0.8919
298.15 K | 0.983 | 0.987 | 0.989 | 0.996 | 1.004 | 1.019 | 1.033 | 1.049 | 1.072
303.15 K | 0.915 | 0.916 | 0.918 | 0.925 | 0.932 | 0.945 | 0.958 | 0.975 | 0.993
308.15 K | 0.847 | 0.847 | 0.848 | 0.853 | 0.861 | 0.871 | 0.884 | 0.901 | 0.915

CCOC(=O)CCl + c1ccccc1
viscosity [mPa·s], 101.3 kPa
Conditions | x1 = 0.0985 | x1 = 0.1983 | x1 = 0.2974 | x1 = 0.3925 | x1 = 0.5049 | x1 = 0.6023 | x1 = 0.696 | x1 = 0.7994 | x1 = 0.8998
298.15 K | 0.634 | 0.659 | 0.694 | 0.734 | 0.781 | 0.834 | 0.886 | 0.949 | 1.019
303.15 K | 0.592 | 0.616 | 0.649 | 0.687 | 0.731 | 0.779 | 0.825 | 0.883 | 0.948
308.15 K | 0.549 | 0.574 | 0.605 | 0.64 | 0.681 | 0.723 | 0.765 | 0.82 | 0.878

CCOC(=O)CCl + CCCCCCCCCCCC
viscosity [mPa·s], 101.33 kPa
Conditions | x1 = 0.0961 | x1 = 0.2041 | x1 = 0.3012 | x1 = 0.4005 | x1 = 0.5029 | x1 = 0.6026 | x1 = 0.7029 | x1 = 0.804 | x1 = 0.9017
298.15 K | 1.25 | 1.197 | 1.159 | 1.14 | 1.127 | 1.116 | 1.105 | 1.101 | 1.099
303.15 K | 1.149 | 1.094 | 1.062 | 1.041 | 1.027 | 1.029 | 1.015 | 0.994 | 0.985
308.15 K | 1.054 | 1.019 | 0.979 | 0.96 | 0.946 | 0.94 | 0.93 | 0.927 | 0.929

CCNCCO + CCOCCOCCOCC
viscosity, 101.3 kPa
Conditions | x1 = 0.313 | x1 = 0.548 | x1 = 0.732 | x1 = 0.879 | x2 = 0.1906 | x2 = 0.3546 | x2 = 0.5618
293.15 K | 1.74 mPa·s | 2.601 mPa·s and 2.603 mPa·s | 4.275 mPa·s | 7.482 mPa·s | 5.481 mPa·s | 3.2 mPa·s | 2.028 mPa·s
303.15 K | 1.397 mPa·s | 2.007 mPa·s and 2.027 mPa·s | 3.137 mPa·s | 5.176 mPa·s | 3.902 mPa·s | 2.422 mPa·s | 1.604 mPa·s
313.15 K | 1.14 mPa·s | 1.584 mPa·s and 1.616 mPa·s | 2.372 mPa·s | 3.717 mPa·s | 2.88 mPa·s | 1.867 mPa·s | 1.291 mPa·s
323.15 K | 0.9463 mPa·s | 1.276 mPa·s and 1.317 mPa·s | 1.844 mPa·s | 2.764 mPa·s | 2.189 mPa·s | 1.478 mPa·s | 1.056 mPa·s

COC(=O)c1ccccc1 + CS(C)=O
303.15 K, 101 kPa
Conditions | viscosity [mPa·s]
x1 = 0.1946 | 1.757
x1 = 0.2734 | 1.752
x1 = 0.3608 | 1.751
x1 = 0.4584 | 1.751
x1 = 0.5683 | 1.723
x1 = 0.6931 | 1.682

CNC=O + CCCO
viscosity [mPa·s], 101 kPa
Conditions | x2 = 0.1009 | x2 = 0.2001 | x2 = 0.3003 | x2 = 0.4003 | x2 = 0.5005 | x2 = 0.6 | x2 = 0.7001 | x2 = 0.8009 | x2 = 0.9007
303.15 K | 1.545 | 1.51 | 1.475 | 1.454 | 1.441 | 1.444 | 1.464 | 1.52 | 1.605
308.15 K | 1.423 | 1.389 | 1.357 | 1.336 | 1.322 | 1.321 | 1.337 | 1.381 | 1.448
313.15 K | 1.316 | 1.284 | 1.252 | 1.231 | 1.216 | 1.213 | 1.225 | 1.258 | 1.31
318.15 K | 1.22 | 1.189 | 1.158 | 1.138 | 1.123 | 1.118 | 1.124 | 1.149 | 1.188
323.15 K | 1.134 | 1.105 | 1.075 | 1.054 | 1.036 | 1.03 | 1.034 | 1.051 | 1.079

c1ccc2c(c1)CCCC2 + C1CCCCC1
298.15 K, 101 kPa
Conditions | viscosity [mPa·s]
x1 = 0.1649 | 0.9811
x1 = 0.3447 | 1.127
x1 = 0.5442 | 1.324
x1 = 0.7597 | 1.619

CNC=O + O=C1CCCCC1
viscosity [mPa·s], 101 kPa
Conditions | x1 = 0.0868 | x1 = 0.1762 | x1 = 0.2682 | x1 = 0.3632 | x1 = 0.461 | x1 = 0.562 | x1 = 0.6662 | x1 = 0.7738 | x1 = 0.885
303.15 K | 1.804 | 1.786 | 1.762 | 1.739 | 1.714 | 1.693 | 1.668 | 1.646 | 1.618
308.15 K | 1.645 | 1.63 | 1.61 | 1.592 | 1.57 | 1.553 | 1.532 | 1.513 | 1.49
313.15 K | 1.472 | 1.463 | 1.451 | 1.439 | 1.425 | 1.413 | 1.4 | 1.387 | 1.371
318.15 K | 1.284 | 1.284 | 1.283 | 1.281 | 1.278 | 1.275 | 1.271 | 1.267 | 1.262
